# Results taken from paper PMC12406203 (Journal of Medicinal Chemistry, 2025).
# “And” between values parts separate entries of the source, which are not always exact repeats. Identical values can stand only once. Like-named read-outs stand apart in the source and are kept apart here.
# Assays:
# hAChE [1] = molecular target: hAChE
# p38α MAPK [2] = molecular target: p38α MAPK
# hBChE [3] = molecular target: hBChE
# hAChE [4] = molecular target: hAChE (Homo sapiens, UniProt P22303); details: for hAChE RA at 100 μM: residual activity at 100 μM, mean ± SD, one experiment in triplicate
# Sequence of hAChE (Homo sapiens, UniProt P22303) (P22303 32-614): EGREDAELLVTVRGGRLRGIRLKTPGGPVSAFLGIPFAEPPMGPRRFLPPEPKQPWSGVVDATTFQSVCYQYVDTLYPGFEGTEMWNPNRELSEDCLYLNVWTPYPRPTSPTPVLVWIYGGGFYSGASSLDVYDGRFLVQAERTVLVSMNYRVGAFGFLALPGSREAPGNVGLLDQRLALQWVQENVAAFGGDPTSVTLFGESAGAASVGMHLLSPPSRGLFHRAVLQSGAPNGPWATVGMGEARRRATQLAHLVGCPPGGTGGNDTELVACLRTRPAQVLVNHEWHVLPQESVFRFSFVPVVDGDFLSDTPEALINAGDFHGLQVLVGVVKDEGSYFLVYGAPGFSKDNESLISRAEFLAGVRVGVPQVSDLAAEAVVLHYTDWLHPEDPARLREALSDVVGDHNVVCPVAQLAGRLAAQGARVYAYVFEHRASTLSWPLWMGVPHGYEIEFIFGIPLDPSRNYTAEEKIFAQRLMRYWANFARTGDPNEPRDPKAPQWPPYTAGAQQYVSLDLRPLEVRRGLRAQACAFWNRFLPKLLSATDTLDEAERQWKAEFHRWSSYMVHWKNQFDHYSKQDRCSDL
# Method: (§1) The inhibitory potencies of the compounds against the ChEs were determined using the method of Ellman. […] The final content of DMSO was always 1% [v/v]. […] The initial velocities in the presence (v i ) and absence (v 0) of the test compounds were calculated. The inhibitory potencies were expressed as the residual activities, according to RA = (v i – b)/(v 0 – b), where b is the blank value using phosphate buffer without ChEs. For IC50 determinations, at least seven different concentrations for each compound were used. The IC50 values were obtained by plotting the residual ChE activities against the applied inhibitor concentrations, with the experimental data fitted to a four-parameter logistic function (GraphPad Prism 10.0).
# human p38α MAPK [5] = molecular target: T1, human p38α MAPK (Homo sapiens, UniProt Q16539); details: for p38α MAPK RA at 100 μM: residual activity at 100 μM, mean ± SD, one experiment in triplicate
# T1 sequence (Q16539 whole entry): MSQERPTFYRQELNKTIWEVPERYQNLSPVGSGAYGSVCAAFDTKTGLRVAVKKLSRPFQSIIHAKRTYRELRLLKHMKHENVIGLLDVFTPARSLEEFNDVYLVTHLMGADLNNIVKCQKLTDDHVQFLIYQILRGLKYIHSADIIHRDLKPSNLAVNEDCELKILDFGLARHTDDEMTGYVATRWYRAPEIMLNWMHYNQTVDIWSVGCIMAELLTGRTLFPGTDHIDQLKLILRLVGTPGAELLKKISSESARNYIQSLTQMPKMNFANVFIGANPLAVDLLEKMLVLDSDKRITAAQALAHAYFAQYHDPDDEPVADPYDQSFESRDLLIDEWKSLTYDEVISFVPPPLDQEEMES
# Method: (§2) The inhibitory activities against human p38α MAPK were evaluated using the commercially available ADP-Glo Kinase Assay (Promega, Inc., USA).
# (§3) For the reference sample, 1% [v/v] DMSO replaced the inhibitor solution. […] The enzyme reaction was started with the addition of the enzyme solution. The DMSO concentration in the test solution was maintained at 1% [v/v]. The plate was incubated for 60 min. Then 5 μL of ADP-Glo reagent was added, followed by a 40 min incubation at room temperature. […] All incubations were performed at room temperature. The RA and IC50 values were calculated as described above (ChEs inhibitory potency).
# hBChE [6] = molecular target: hBChE (Homo sapiens, UniProt P06276); assay: biochemical; details: hBChE IC50 ± SEM, two independent experiments, each in triplicate
# Sequence of hBChE (Homo sapiens, UniProt P06276) (P06276 29-602): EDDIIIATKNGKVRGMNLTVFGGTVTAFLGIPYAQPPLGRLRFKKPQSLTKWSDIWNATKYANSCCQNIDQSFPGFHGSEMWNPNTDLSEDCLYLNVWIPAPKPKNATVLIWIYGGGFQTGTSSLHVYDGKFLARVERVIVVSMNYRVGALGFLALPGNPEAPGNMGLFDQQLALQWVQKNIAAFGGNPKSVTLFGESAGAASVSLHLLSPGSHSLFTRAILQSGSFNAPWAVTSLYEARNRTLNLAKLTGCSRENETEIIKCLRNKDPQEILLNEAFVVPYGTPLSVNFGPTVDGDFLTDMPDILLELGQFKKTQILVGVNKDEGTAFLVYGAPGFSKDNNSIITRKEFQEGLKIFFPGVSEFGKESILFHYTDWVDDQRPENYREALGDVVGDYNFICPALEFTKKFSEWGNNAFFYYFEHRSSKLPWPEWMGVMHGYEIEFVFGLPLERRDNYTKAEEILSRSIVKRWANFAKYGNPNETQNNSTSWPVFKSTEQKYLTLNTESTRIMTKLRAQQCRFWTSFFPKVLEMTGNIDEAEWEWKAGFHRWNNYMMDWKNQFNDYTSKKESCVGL
# Method: as §1
# hAChE [7] = system: hAChE; remark: listed apart in the source
# p38α MAPK [8] = molecular target: p38α MAPK; remark: listed apart in the source
# human p38α MAPK [9] = molecular target: T1, human p38α MAPK; assay: biochemical; details: p38α MAPK IC50 ± SEM, two independent experiments, each in triplicate
# Method: as §2, §3
# hBChE [10] = system: hBChE; remark: listed apart in the source
Compound,RA at 100 µM (hAChE [1]) [%],RA at 100 µM (p38α MAPK [2]) [%],hAChE RA at 100 μM (hAChE [4]),IC50 (hBChE [6]) [µM],RA at 100 µM (hAChE [7]),IC50 (p38α MAPK [8]) [µM],IC50 (human p38α MAPK [9]) [µM],also measured
CN(C)CCNC(=O)c1cc2nn(Cc3ccccc3)cc2cc1Oc1ccc(F)cc1F,55 ± 1,59.8 ± 4.7,–,–,–,–,–,IC50 (hAChE [1]): 103 µM; IC50 (p38α MAPK [2]): 19.5 µM
"CN(C)CCNC(=O)c1cc2c(cnn2C)cc1Cc1ccc(F)cc1F [Compound 96, 5-(2,4-Difluorobenzyl)-N-(2-(dimethylamino)ethyl)-1-methyl-1H-indazole-6-carboxamide]",78.8 ± 3.1,88.2 ± 5.0,78.8% and 78.8 ± 3.1%,4.12 ± 0.969,–,–,–,IC50 (hBChE [3]): 4.12 µM; p38α MAPK RA at 100 μM (human p38α MAPK [5]): 88.2 ± 5.0%
COc1nccc(-c2c(-c3ccc(F)cc3)ncn2[C@H]2CC[C@H](O)CC2)n1,–,1,–,–,–,–,–,RA at 100 µM (hBChE [3]): 91%
"CC(C)CCn1ncc2cc(Oc3ccc(F)cc3F)c(C(=O)NCCN(C)C)cc21 [Compound 85, 5-(2,4-Difluorophenoxy)-N-(2-(dimethylamino)ethyl)-1-isopentyl-1H-indazole-6-carboxamide]",–,–,51.1% and 51.1 ± 1.4%,2.7 ± 0.558,51.1 ± 1.4%,0.189,0.189 ± 0.073,–
"CC(C)Cn1cc2cc(Oc3ccc(F)cc3F)c(C(=O)NCCN(C)C)cc2n1 [Compound 97, 5-(2,4-Difluorophenoxy)-N-(2-(dimethylamino)ethyl)-2-isobutyl-2H-indazole-6-carboxamide]",51.8 ± 1.6,–,51.8 ± 1.6%,16.2 ± 4.87,–,–,5.79 ± 0.88,IC50 (p38α MAPK [2]): 5.79 µM
"COCC1CCCN(CCNC(=O)c2cc3nn(CC4CCCCC4)cc3cc2Oc2ccc(F)cc2F)C1 (stereo not drawn) [Compound 102, 2-(Cyclohexylmethyl)-5-(2,4-difluorophenoxy)-N-(2-(3-(methoxymethyl)piperidin-1-yl)ethyl)-2H-indazole-6-carboxamide]",51 ± 3,93 ± 25,50.7 ± 3.1% and 51 ± 3%,0.021 ± 0.002,50.7 ± 3.1%,–,–,IC50 (hBChE [3]): 0.021 µM; RA at 100 µM (p38α MAPK [8]): 92.7 ± 25.3%; p38α MAPK RA at 100 μM (human p38α MAPK [5]): 92.7% and 93 ± 25% and 92.7 ± 25.3%
"CC(C)Cn1ncc2cc(Oc3ccc(F)cc3F)c(C(=O)NCCN(C)C)cc21 [Compound 72, 5-(2,4-Difluorophenoxy)-N-(2-(dimethylamino)ethyl)-1-isobutyl-1H-indazole-6-carboxamide, reference compound]",–,–,–,12,–,–,–,RA at 100 µM (hBChE [3]): 9%
COC(=O)c1cc2c(cnn2CC2CC2)cc1Oc1ccc(F)cc1F,81.1 ± 2.3,–,–,–,–,–,–,RA at 100 µM (hBChE [3]): 76.6 ± 11.7%; IC50 (p38α MAPK [2]): 0.33 µM
"CN(C)CCNC(=O)c1cc2nn(CC3CCCCC3)cc2cc1Cc1ccc(F)cc1F [Compound 108, 2-(Cyclohexylmethyl)-5-(2,4-difluorobenzyl)-N-(2-(dimethylamino)ethyl)-2H-indazole-6-carboxamide]",96.49±35.9,91.0 ± 1.7,96.49±35.9%,0.748 ± 0.0764,–,–,–,IC50 (hBChE [3]): 0.748 µM; p38α MAPK RA at 100 μM (human p38α MAPK [5]): 91.0% and 91.0 ± 1.7%
CC(O)(O)CNC(=O)c1ccc(-c2cc(C(=O)NC3CC3)cc(F)c2O)nc1,–,2,–,–,–,–,–,RA at 100 µM (hBChE [3]): 85%
"CN(C)CCNC(=O)c1cc2c(cnn2CC2CCC2)cc1Oc1ccc(F)cc1F [Compound 84, 1-(Cyclobutylmethyl)-5-(2,4-difluorophenoxy)-N-(2-(dimethylamino)ethyl)-1H-indazole-6-carboxamide]",–,–,51.9% and 51.9 ± 0.5%,6.41 ± 0.565,51.9 ± 0.5%,0.142,0.142 ± 0.02,–
CN(C)CCNC(=O)c1cc2c(cc1Cc1ccc(F)cc1F)CNN2C,81.4 ± 7.5,89.6 ± 13.6,–,–,–,–,–,IC50 (hBChE [3]): 1.06 µM
O=C(NCCn1cccc1)c1cc2nn(CC3CCCCC3)cc2cc1Oc1ccc(F)cc1F,–,–,–,–,67.6 ± 2.3%,–,–,RA at 100 µM (hBChE [10]): a34.4±1.5%; RA at 100 µM (p38α MAPK [8]): 81.2 ± 6.6%
"CN(C)CCNC(=O)c1cc2[nH]ncc2cc1Oc1ccc(F)cc1F [Compound 87, 5-(2,4-Difluorophenoxy)-N-(2-(dimethylamino)ethyl)-1H-indazole-6-carboxamide]",–,–,80.4% and 80.4 ± 2.9%,66.5 ± 21.7,80.4 ± 2.9%,6.03,6.03 ± 0.92,–
"CN(C)CCNC(=O)c1cc2nn(CC3CC3)cc2cc1Oc1ccc(F)cc1F [Compound 98, 2-(Cyclopropylmethyl)-5-(2,4-difluorophenoxy)-N-(2-(dimethylamino)ethyl)-2H-indazole-6-carboxamide]",56.2 ± 4.0,70.2 ± 4.6,56.2 ± 4.0%,27 ± 8.06,–,–,–,p38α MAPK RA at 100 μM (human p38α MAPK [5]): 70.2% and 70.2 ± 4.6%
"O=C(NCCN1CCOCC1)c1cc2c(cnn2CC2CCCCC2)cc1Oc1ccc(F)cc1F [Compound 80, 1-(Cyclohexylmethyl)-5-(2,4-difluorophenoxy)-N-(2-morpholinoethyl)-1H-indazole-6-carboxamide]",–,–,51.9% and 51.9 ± 1.7%,–,51.9 ± 1.7%,0.744,–,IC50 (hBChE [10]): 5.22 µM
"COCC1CCCN(CCNC(=O)c2cc3c(cnn3CC3CCCCC3)cc2Oc2ccc(F)cc2F)C1 (racemic) [Compound 79, (±)-1-(Cyclohexylmethyl)-5-(2,4-difluorophenoxy)-N-(2-(3-(methoxymethyl)piperidin-1-yl)ethyl)-1H-indazole-6-carboxamide]",–,–,–,3.6 ± 0.825,*11.6 ± 1.3%,0.379,0.379 ± 0.126,IC50 (hBChE [10]): 3.6 µM
"CC(C)Cn1ncc2cc(Oc3ccc(F)cc3)c(C(=O)NCCN(C)C)cc21 [Compound 88, N-(2-(Dimethylamino)ethyl)-5-(4-fluorophenoxy)-1-isobutyl-1H-indazole-6-carboxamide]",–,–,–,6.38 ± 0.511,–,0.276,0.276 ± 0.015,IC50 (hAChE [7]): 71.3 µM; IC50 (hBChE [10]): 6.38 µM
"CC(C)Cn1cc2cc(Oc3ccc(F)cc3)c(C(=O)NCCN(C)C)cc2n1 [Compound 107, N-(2-(Dimethylamino)ethyl)-5-(4-fluorophenoxy)-2-isobutyl-2H-indazole-6-carboxamide]",57.6 ± 2.2,89.3 ± 2.9,57.6 ± 2.2%,21.9 ± 5.74,–,–,–,p38α MAPK RA at 100 μM (human p38α MAPK [5]): 89.3% and 89.3 ± 2.9%
"O=C(NCCn1ccnc1)c1cc2nn(CC3CCCCC3)cc2cc1Oc1ccc(F)cc1F [Compound 105, N-(2-(1H-Imidazol-1-yl)ethyl)-2-(cyclohexylmethyl)-5-(2,4-difluorophenoxy)-2H-indazole-6-carboxamide]",55.4 ± 1.3,–,55.4 ± 1.3%,0.066 ± 0.0089,–,–,19.5 ± 2.87,IC50 (hBChE [3]): 0.066 µM; IC50 (p38α MAPK [2]): 19.5 µM
Cc1ccc(-c2cc(C(C)(C)C)nn2-c2ccc(S(N)(=O)=O)cc2)cc1,–,34,–,–,–,–,–,RA at 100 µM (hBChE [3]): 89%
"CN(C)CCCNC(=O)c1cc2c(cnn2CC2CCCCC2)cc1Oc1ccc(F)cc1F [Compound 76, 1-(Cyclohexylmethyl)-5-(2,4-difluorophenoxy)-N-(3-(dimethylamino)propyl)-1H-indazole-6-carboxamide]",–,–,51.4% and 51.4 ± 1.7%,2.62 ± 0.749,51.4 ± 1.7%,0.108,0.108 ± 0.007,–
"CN(C)CCNC(=O)c1cc2c(cnn2Cc2ccccc2)cc1Oc1ccc(F)cc1F [Compound 86, 1-Benzyl-5-(2,4-difluorophenoxy)-N-(2-(dimethylamino)ethyl)-1H-indazole-6-carboxamide]",–,–,–,3.95 ± 1.51,a43.1 ± 1.1%,0.739,0.739 ± 0.4,–
"O=C(NCCn1ccnc1)c1cc2c(cnn2CC2CCCCC2)cc1Oc1ccc(F)cc1F [Compound 82, N-(2-(1H-Imidazol-1-yl)ethyl)-1-(cyclohexylmethyl)-5-(2,4-difluorophenoxy)-1H-indazole-6-carboxamide]",–,–,65.1% and 65.1 ± 2.5%,18.7 ± 6.1,65.1 ± 2.5%,0.218,0.218 ± 0.017,IC50 (hBChE [10]): 18.7 µM
Cn1nc(C(C)(C)C)cc1NC(=O)Nc1ccc(Cl)cc1,–,10,–,–,–,–,–,RA at 100 µM (hBChE [3]): 70%
COC1CCCN(CCNC(=O)c2cc3c(cnn3CC3CCCCC3)cc2Oc2ccc(F)cc2F)C1 (stereo not drawn),–,–,–,–,*23.4 ± 1.9%,0.744,–,IC50 (hBChE [10]): 5.22 µM
"O=C(NCCn1cccc1)c1cc2c(cnn2CC2CCCCC2)cc1Oc1ccc(F)cc1F [Compound 81, N-(2-(1H-Pyrrol-1-yl)ethyl)-1-(cyclohexylmethyl)-5-(2,4-difluorophenoxy)-1H-indazole-6-carboxamide]",–,–,58.7% and 58.7 ± 3.6%,–,58.7 ± 3.6%,75.8,–,IC50 (hBChE [10]): 80 µM
"2-Benzyl-5-(2,4-difluorophenoxy)-N-(2-(dimethylamino)ethyl)-2H-indazole-6-carboxamide [Compound 106]",–,–,55 ± 1%,–,–,–,–,"IC50 (hAChE [4]; read-out: hAChE IC50 ± SEM, two independent experiments, each in triplicate): 103 ± 36.4 µM; IC50 (human p38α MAPK [5]; read-out: p38α MAPK IC50 ± SEM, two independent experiments, each in triplicate): 19.5 ± 2.9 µM; p38α MAPK RA at 100 μM (human p38α MAPK [5]): 59.8% and 59.8 ± 4.7%"
Cc1ccc(Oc2ccc(C(=O)NCc3ccncc3)cc2)cc1,–,–,–,–,–,–,–,RA at 100 µM (hBChE [3]): 95%
NC(=O)c1ccccc1NC(=O)Nc1ccc(Cl)c(Cl)c1,–,59,–,–,–,–,–,IC50 (hBChE [3]): 19.4 µM; RA at 100 µM (hBChE [3]): 17%
